The source of these data is ChEMBL document CHEMBL2029250 (Bioorg Med Chem Lett, 2012).

Usually EC50 stands for the concentration giving half of the maximal effect. Usually IC50 stands for the concentration that inhibits the measured activity by half.

Calls of active or inactive are those of the source. The calls are words filed in the database; no cut-off is given here.

Test [1] concerns the target T1, Peroxisome proliferator-activated receptor alpha (Homo sapiens, UniProt Q07869).
T1 sequence (Q07869 whole entry): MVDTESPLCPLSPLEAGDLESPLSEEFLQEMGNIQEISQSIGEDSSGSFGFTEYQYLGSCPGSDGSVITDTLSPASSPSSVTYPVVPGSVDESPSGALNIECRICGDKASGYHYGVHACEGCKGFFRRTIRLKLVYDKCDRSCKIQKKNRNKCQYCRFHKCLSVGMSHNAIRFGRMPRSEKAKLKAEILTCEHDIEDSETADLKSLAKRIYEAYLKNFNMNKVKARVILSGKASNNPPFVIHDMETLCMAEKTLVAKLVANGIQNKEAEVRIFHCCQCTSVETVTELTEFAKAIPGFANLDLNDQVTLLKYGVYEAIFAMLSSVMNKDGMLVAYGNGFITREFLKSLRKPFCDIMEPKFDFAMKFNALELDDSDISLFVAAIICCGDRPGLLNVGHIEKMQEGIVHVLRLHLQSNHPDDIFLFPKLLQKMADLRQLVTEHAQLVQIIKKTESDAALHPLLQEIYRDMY
As to the kind of experiment: Transactivation of human PPARalpha expressed in african green monkey CV1 cells by luciferase reporter gene assay. The class given is cell-based, CV-1.

The target in test [2] is T2, Peroxisome proliferator-activated receptor gamma (Homo sapiens, UniProt P37231).
T2 sequence (P37231 whole entry): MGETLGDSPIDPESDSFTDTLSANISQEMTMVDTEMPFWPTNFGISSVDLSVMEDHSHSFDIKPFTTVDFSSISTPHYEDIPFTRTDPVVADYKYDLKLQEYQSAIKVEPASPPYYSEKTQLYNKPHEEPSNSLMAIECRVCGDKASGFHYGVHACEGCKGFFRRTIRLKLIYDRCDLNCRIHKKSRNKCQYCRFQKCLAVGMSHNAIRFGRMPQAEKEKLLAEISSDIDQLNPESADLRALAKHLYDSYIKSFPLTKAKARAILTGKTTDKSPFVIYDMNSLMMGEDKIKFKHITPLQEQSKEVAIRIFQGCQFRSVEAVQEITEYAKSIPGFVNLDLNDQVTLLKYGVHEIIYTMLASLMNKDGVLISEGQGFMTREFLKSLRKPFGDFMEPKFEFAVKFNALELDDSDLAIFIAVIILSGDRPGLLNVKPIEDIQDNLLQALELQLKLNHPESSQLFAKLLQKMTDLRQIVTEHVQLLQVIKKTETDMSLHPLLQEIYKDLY
Kind of test: Transactivation of human PPARgamma expressed in african green monkey CV1 cells by luciferase reporter gene assay. The class given is cell-based, CV-1. For orientation: Reporter assays use an easily measured gene product as a stand-in for the process of interest.

For test [3], the target named is T1, Peroxisome proliferator-activated receptor alpha. Kind of test: Binding affinity to GST-tagged human PPARalpha by TR-FRET analysis. Background: In TR-FRET formats the signal depends on donor and acceptor labels being close together.
The target of test [4] is T2, Peroxisome proliferator-activated receptor gamma.
Test [5] has as its system HepG2. Kind of test: Increase in CPT1 mRNA expression in human HepG2 cells at 10 uM. The class given is functional, cell-based.
The subject of test [6] is 3T3-L1. As to the kind of experiment: Induction of preadipocyte differentiation in mouse 3T3L1 cells assessed as […] in lipid droplet accumulation at 10 uM Oil Red O staining. The class given is functional, cell-based.
Test [7] deals with T3, Peroxisome proliferator-activated receptor delta (Homo sapiens, UniProt Q03181).
T3 sequence (Q03181 whole entry): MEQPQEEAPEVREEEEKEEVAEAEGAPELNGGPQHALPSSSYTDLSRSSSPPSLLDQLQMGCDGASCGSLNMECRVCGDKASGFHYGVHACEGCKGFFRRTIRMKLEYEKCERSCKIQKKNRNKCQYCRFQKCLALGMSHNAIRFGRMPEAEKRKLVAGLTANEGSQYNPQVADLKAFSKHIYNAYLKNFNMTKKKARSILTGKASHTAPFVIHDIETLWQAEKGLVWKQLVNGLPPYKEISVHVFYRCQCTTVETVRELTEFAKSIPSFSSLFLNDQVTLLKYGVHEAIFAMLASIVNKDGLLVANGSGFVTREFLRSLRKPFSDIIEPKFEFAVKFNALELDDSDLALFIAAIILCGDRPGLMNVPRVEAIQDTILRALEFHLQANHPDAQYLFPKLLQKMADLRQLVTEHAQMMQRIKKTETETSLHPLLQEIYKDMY
The conditions noted are these: cv-1.

For test [8], the target named is T4, Peroxisome proliferator-activated receptor alpha (Homo sapiens) (UniProt Q07869).
T4 sequence (whole entry): T1 sequence (Q07869 whole entry)
Kind of test: Transactivation of human PPARalpha expressed in african green monkey CV1 cells at 30 uM by luciferase reporter gene assay relative to Wy14643. The class given is cell-based. The following applies: CV-1.

Test [9] addresses T5, Peroxisome proliferator-activated receptor gamma (Homo sapiens) (UniProt P37231).
T5 sequence (whole entry): T2 sequence (P37231 whole entry)
Kind of test: Transactivation of human PPARgamma expressed in african green monkey CV1 cells at 30 uM by luciferase reporter gene assay relative to […]. The class given is cell-based. The conditions noted are these: CV-1.

The target of test [10] is T6, Peroxisome proliferator-activated receptor delta (Homo sapiens) (UniProt Q03181).
T6 sequence (whole entry): T3 sequence (Q03181 whole entry)
The conditions noted are these: CV-1, 30 uM.

Test [11] relates to HepG2. As to the kind of experiment: Increase in ACS mRNA expression in human HepG2 cells at 10 uM. The class given is functional, cell-based.
Test [12] has as its system 3T3-L1. As to the kind of experiment: Induction of preadipocyte differentiation in mouse 3T3L1 cells assessed as increase in lipid droplet accumulation at 10 uM Oil Red O staining relative to control. The class given is functional, cell-based.

As to `CC(C)=CCC/C(C)=C/Cc1c(O)cc(/C=C/c2cccc(C(F)(F)F)c2)cc1O`, the values for the EC50 in test [1], in test [2] and in test [7] were 4 µM, 5 µM and “Not Active”, respectively. Also, the values for the IC50 in [3] and in test [4] were 1.21 µM and 0.53 µM, respectively. Moreover, the outcome in the test on HepG2 [5] and in the test with 3T3-L1 [6] was Active.
With `CC(C)=CCC/C(C)=C/Cc1c(O)cc(/C=C/c2ccc(Cl)cc2)cc1O`, the half-maximal inhibitory concentration (IC50) was determined as 7.47 µM in test [3] and 0.54 µM in [4]. In addition, the EC50 entry in [7] is given as “Not Active”.
For `COc1ccc(/C=C/c2cc(O)c(C/C=C(\C)CCC=C(C)C)c(O)c2)cc1`, the figures for the EC50 in test [1], in test [2] and in test [7] were 19 µM, 14 µM and “Not Active”, respectively. The values for the Emax in [8] and in test [9] were 63% and 66%, respectively. Moreover, the half-inhibitory concentration (IC50) is 2.5 µM in test [3] and 0.63 µM in test [4].
Take `CC(C)=CCC/C(C)=C/Cc1c(O)cc(/C=C/c2ccc(F)cc2)cc1O`: the EC50 in test [1] was 6 µM; in test [2] it was 11 µM; in test [7], “Not Active”. For the same compound, the Emax in test [8] was found to be 88%; in test [9] it was 68%; in [10], 17%. Moreover, the IC50 stood at 2.48 µM in test [3] and 2.32 µM in test [4].
In the case of `CC(C)=CCC/C(C)=C/Cc1c(O)cc(/C=C/c2ccsc2)cc1O`, the concentration for a half-maximal effect (EC50) was 14 µM in [1], 6 µM in test [2] and “Not Active” in test [7]. For the same compound, the figures for the Emax in test [8] and in [9] were 56% and 68%, respectively. Further, the IC50 in test [3] came to 5.41 µM; in test [4], 1.01 µM.
Regarding `CC(C)=CCC/C(C)=C/Cc1c(O)cc(/C=C/c2ccc(C(F)(F)F)cc2)cc1O`, the results for the IC50 in test [3] and in test [4] were 3.33 µM and 8.1 µM, respectively. Also, the half-maximal effective concentration (EC50) result in [7] is listed as “Not Active”.
Turning to `CC(C)=CCC/C(C)=C/Cc1c(O)cc(/C=C/c2ccoc2)cc1O`, the EC50 in test [1] was 6 µM; in test [2], 5 µM; in test [7] it was “Not Active”. Besides, the Emax in test [8] came to 87%; in test [9], 98%; in test [10], 34%. Further, the values for the IC50 in [3] and in test [4] were 2.03 µM and 0.65 µM, respectively. The result in the test with HepG2 [11] and in the test on 3T3-L1 [6] was Active.
Turning to `CC(C)=CCC/C(C)=C/Cc1c(O)cc(/C=C/c2ccccc2)cc1O` [AMORPHASTILBOL], the EC50 is 12 µM in [1], 5 µM in test [2] and “Not Active” in test [7]. The values for the Emax in [8] and in [9] were 66% and 83%, respectively. Moreover, the IC50 in test [3] amounted to 1.52 µM; in test [4], 0.85 µM. Also, the outcome in the test on 3T3-L1 [12], with HepG2 [5] and with HepG2 [11] was Active.
As to `CC(C)=CCC/C(C)=C/Cc1c(O)cc(/C=C/c2ccc(C#N)cc2)cc1O`, the half-maximal effective concentration (EC50) in [1] is 20 µM; in test [7], “Not Active”. Also, the Emax in test [8] is 54%; in [9], 41%. The figures for the IC50 in test [3] and in [4] were 3.47 µM and 1.2 µM, respectively.
In the case of `CC(C)=CCC/C(C)=C/Cc1c(O)cc(/C=C/c2ccc(O)cc2)cc1O`, the EC50 in test [1] is 8 µM; in test [2], 8 µM; in test [7], “Not Active”. Further, the figures for the IC50 in test [3] and in [4] were 1.21 µM and 0.11 µM, respectively.
`CC(C)=CCC/C(C)=C/Cc1c(O)cc(/C=C/c2ccc(C=O)cc2)cc1O`: the Emax was 35% in test [8] and 27% in [9]. In addition, the half-inhibitory concentration (IC50) in test [3] was 2.82 µM; in test [4], 0.89 µM. Also, the EC50 result in [7] is listed as “Not Active”.
For the compound `CC(C)=CCC/C(C)=C/Cc1c(O)cc(/C=C/c2cc(F)cc(F)c2)cc1O`, the EC50 was 7 µM in test [2] and “Not Active” in [7]. Further, the IC50 in test [3] came out at 2.08 µM; in test [4], 0.9 µM.
